Key:
Top1 [1] = target: T1, Top1 (Homo sapiens, UniProt P11387); assay type: biochemical
T1 sequence (P11387 1-765): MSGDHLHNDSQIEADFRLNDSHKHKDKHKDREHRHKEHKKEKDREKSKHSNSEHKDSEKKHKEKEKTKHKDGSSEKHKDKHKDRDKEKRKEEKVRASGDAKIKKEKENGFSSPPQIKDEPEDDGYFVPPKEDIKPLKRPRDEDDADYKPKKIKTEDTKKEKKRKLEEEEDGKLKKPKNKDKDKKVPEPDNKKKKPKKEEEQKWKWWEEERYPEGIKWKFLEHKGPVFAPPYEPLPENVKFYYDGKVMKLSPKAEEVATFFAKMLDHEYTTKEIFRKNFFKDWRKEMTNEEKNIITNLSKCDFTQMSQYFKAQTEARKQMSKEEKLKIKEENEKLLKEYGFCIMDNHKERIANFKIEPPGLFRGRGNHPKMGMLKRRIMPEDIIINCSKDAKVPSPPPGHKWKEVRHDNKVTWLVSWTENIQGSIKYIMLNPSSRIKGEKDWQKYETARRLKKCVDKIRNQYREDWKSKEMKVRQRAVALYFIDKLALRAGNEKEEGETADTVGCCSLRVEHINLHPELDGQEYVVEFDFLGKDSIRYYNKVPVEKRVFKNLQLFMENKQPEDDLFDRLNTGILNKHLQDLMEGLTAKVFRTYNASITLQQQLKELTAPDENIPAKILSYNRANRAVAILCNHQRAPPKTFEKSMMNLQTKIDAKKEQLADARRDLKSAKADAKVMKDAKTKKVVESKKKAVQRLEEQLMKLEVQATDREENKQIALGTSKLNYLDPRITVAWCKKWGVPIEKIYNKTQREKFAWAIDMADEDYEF

[2] = tested on: relaxed pHOT1 plasmid DNA; assay: DNA unwinding assay, relaxed pHOT1 as substrate; assay type: biochemical; settings: 10 units Top1, 37 °C
Top1 [3] = target: T1, Top1; assay: Standard Top1 scDNA relaxation assay; assay type: biochemical
ctDNA = ctDNA absorption spectroscopy titration of ethidium bromide; assay type: binding, calf; settings: value for EB in main text

## O=C1c2c(O)ccc(O)c2C(=O)c2c(NCCNCCO)ccc(NCCNCCO)c21 [MTX, mitoxantrone]
Top1 [1]
  dose at which switch to catalytic inhibition of Top1 occurs: 1 to 10 µM
Top1 [1]; doses of 0.1 and 1 μM
  PicoGreen relative fluorescence readout: positive

## COc1cc(NS(C)(=O)=O)ccc1Nc1c2ccccc2nc2ccccc12 [m-AMSA, 4′-(9-acridinylamino)methanesulfon-m-anisidide]
[2]
  concentration giving the Gaussian distribution of DNA topoisomers: 50 µM
Top1 [3]
  dose giving complete inhibition of the enzyme: 50 µM

## CC[n+]1c(-c2ccccc2)c2cc(N)ccc2c2ccc(N)cc21 [EB, ethidium bromide]
ctDNA
  KA, ctDNA affinity constant: 5(1) × 10^6 M^–1 bp

From PMC4004252 (Journal of the American Chemical Society, 2014)
